Experimental data published in PubChem BioAssay AID192 (DTP/NCI, 2004).
Values joined by “and” are separate entries in the source; they are usually repeats but may differ in a detail not shown here. Identical values can stand only once. Toxic doses and inconclusive results are not listed.

Tested on: BDF1 mice, B16 melanoma ip, median survival T/C
Assay: NCI In Vivo Anticancer Drug Screen. Data for tumor model B16 Melanoma (intraperitoneal) in B6D2F1 (BDF1) mice
Details: endpoint: median survival time, higher = longer survival
In short: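 Read-out: survival or tumor size, given as treated/control ratio. Controls received vehicle only; animals bore transplantable tumors.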

[1] = dose: 100.0 mg/kg/injection, schedule: Q01DX009 (ip), vehicle: Klucel (hydroxypropylcellulose) (HPC)
[2] = dose: 200.0 mg/kg/injection, schedule: Q01DX009 (ip), vehicle: Klucel (hydroxypropylcellulose) (HPC)
[3] = dose: 1.56 mg/kg/injection, schedule: Q01DX009 (ip), vehicle: saline with Tween-80
[4] = dose: 3.12 mg/kg/injection, schedule: Q01DX009 (ip), vehicle: saline with Tween-80
[5] = dose: 6.25 mg/kg/injection, schedule: Q01DX009 (ip), vehicle: saline with Tween-80
[6] = dose: 12.5 mg/kg/injection, schedule: Q01DX009 (ip), vehicle: saline with Tween-80
[7] = dose: 25.0 mg/kg/injection, schedule: Q01DX009 (ip), vehicle: saline with Tween-80
[8] = dose: 50.0 mg/kg/injection, schedule: Q01DX009 (ip), vehicle: saline with Tween-80
[9] = dose: 100.0 mg/kg/injection, schedule: Q01DX009 (ip), vehicle: saline with Tween-80
[10] = dose: 200.0 mg/kg/injection, schedule: Q01DX009 (ip), vehicle: saline with Tween-80
[11] = dose: 6.25 mg/kg/injection, schedule: Q01DX009 (ip), vehicle: Klucel (hydroxypropylcellulose) (HPC)
[12] = dose: 12.5 mg/kg/injection, schedule: Q01DX009 (ip), vehicle: Klucel (hydroxypropylcellulose) (HPC)

C[n+]1c(-c2cccc(OCCCCCCCOc3cccc(-c4c5cc(N)ccc5c5ccc(N)cc5[n+]4C)c3)c2)c2cc(N)ccc2c2ccc(N)cc21
T/C (dose: 0.02 mg/kg/injection, schedule: Q01DX009 (ip), vehicle: water): 95 % of control
T/C (dose: 0.04 mg/kg/injection, schedule: Q01DX009 (ip), vehicle: water): 123 % of control

Nc1nc(=S)c2ncn(C3OC(COC(=O)c4ccc(Cl)cc4)C(OC(=O)c4ccc(Cl)cc4)C3OC(=O)c3ccc(Cl)cc3)c2[nH]1 (centres undefined)
T/C (dose: 18.75 mg/kg/injection, schedule: Q01DX009 (ip), vehicle: Klucel (hydroxypropylcellulose) (HPC)): 116 % of control
T/C (dose: 37.5 mg/kg/injection, schedule: Q01DX009 (ip), vehicle: Klucel (hydroxypropylcellulose) (HPC)): 120 % of control
T/C (dose: 75.0 mg/kg/injection, schedule: Q01DX009 (ip), vehicle: Klucel (hydroxypropylcellulose) (HPC)): 116 % of control
T/C (dose: 150.0 mg/kg/injection, schedule: Q01DX009 (ip), vehicle: Klucel (hydroxypropylcellulose) (HPC)): 109 % of control

Nc1nc(N=Nc2ccc(O)cc2)cc(=O)[nH]1
T/C (dose: 100.0 mg/kg/injection, schedule: Q01DX009 (ip), vehicle: other): 109 % of control
T/C (dose: 200.0 mg/kg/injection, schedule: Q01DX009 (ip), vehicle: other): 105 % of control
T/C (dose: 400.0 mg/kg/injection, schedule: Q01DX009 (ip), vehicle: other): 87 % of control

O=C(Nc1ccccc1C(F)(F)F)Nc1cccc2ccccc12
T/C [1]: 91 % of control
T/C [2]: 94 % of control

CCC(=O)C(CC)c1ccc(OC)cc1OC (centres undefined)
T/C [1]: 96 % of control
T/C [2]: 103 % of control
T/C (dose: 400.0 mg/kg/injection, schedule: Q01DX009 (ip), vehicle: Klucel (hydroxypropylcellulose) (HPC)): 100 % of control

CCCCCCCCC(=O)N(C)OC
T/C (dose: 3.13 mg/kg/injection, schedule: Q04DX003 (ip), vehicle: saline): 107 % of control
T/C (dose: 6.25 mg/kg/injection, schedule: Q04DX003 (ip), vehicle: saline): 121 % of control
T/C (dose: 12.5 mg/kg/injection, schedule: Q04DX003 (ip), vehicle: saline): 105 % of control

CSc1ccc2c(c1)C(N1CCN(C)CC1)Cc1ccccc1S2 (centres undefined)
T/C [3]: 109 % of control
T/C [4]: 110 % of control

CC(C)(C)C(=O)CC(=O)C(F)(F)C(F)(F)C(F)(F)F.[Ag]
T/C [5]: 97 % of control
T/C [6]: 94 % of control
T/C [7]: 86 % of control

COc1ccc(OC)c(C2N(Cc3ccc(N(C)C)cc3)CCCN2Cc2ccc(N(C)C)cc2)c1
T/C [7]: 104 % of control
T/C [8]: 97 % of control
T/C [9]: 100 % of control

CC(C)(C)C1CCC(C(=O)O)CC1 (centres undefined)
T/C [8]: 95 % of control
T/C [9]: 90 % of control
T/C [10]: 90 % of control

C=CC(C)NC(=S)NNC(=S)NC (centres undefined)
T/C (dose: 25.0 mg/kg/injection, schedule: Q01DX009 (ip), vehicle: saline + alcohol): 97 % of control
T/C (dose: 50.0 mg/kg/injection, schedule: Q01DX009 (ip), vehicle: saline + alcohol): 102 % of control
T/C (dose: 100.0 mg/kg/injection, schedule: Q01DX009 (ip), vehicle: saline + alcohol): 104 % of control
T/C (dose: 200.0 mg/kg/injection, schedule: Q01DX009 (ip), vehicle: saline + alcohol): 98 % of control
T/C (dose: 400.0 mg/kg/injection, schedule: Q01DX009 (ip), vehicle: saline + alcohol): 97 % of control

COC(=O)C12OCC34C(CC5C(C)=C(O)C(=O)CC5(C)C3C(O)C1O)OC(=O)C(OC(=O)/C=C(\C)C(C)(C)O)C24 (centres undefined)
T/C (dose: 0.05 mg/kg/injection, schedule: Q01DX009 (ip), vehicle: saline with Tween-80): 124 % of control
T/C (dose: 0.1 mg/kg/injection, schedule: Q01DX009 (ip), vehicle: saline with Tween-80): 150 % of control
T/C (dose: 0.2 mg/kg/injection, schedule: Q01DX009 (ip), vehicle: saline): 159 % of control
T/C (dose: 0.4 mg/kg/injection, schedule: Q01DX009 (ip), vehicle: saline with Tween-80): 152 % of control
T/C (dose: 0.4 mg/kg/injection, schedule: Q01DX009 (ip), vehicle: saline): 153 % of control
T/C (dose: 0.8 mg/kg/injection, schedule: Q01DX009 (ip), vehicle: saline with Tween-80): 172 % of control
T/C (dose: 1.6 mg/kg/injection, schedule: Q01DX009 (ip), vehicle: saline with Tween-80): 161 % of control

CCCCCCCCCCCCNC(=O)Nc1ccc(C)cc1C
T/C [1]: 92 % of control
T/C [2]: 96 % of control

O=C1Cc2cccc3c2C(C1)CN3C(=O)c1ccccc1 (centres undefined)
T/C (dose: 100.0 mg/kg/injection, schedule: Q04DX003 (ip), vehicle: Klucel (hydroxypropylcellulose) (HPC)): 101 % of control
T/C (dose: 200.0 mg/kg/injection, schedule: Q04DX003 (ip), vehicle: Klucel (hydroxypropylcellulose) (HPC)): 106 % of control
T/C (dose: 400.0 mg/kg/injection, schedule: Q04DX003 (ip), vehicle: Klucel (hydroxypropylcellulose) (HPC)): 110 % of control

Cn1cnc([N+](=O)[O-])c1Sc1nc(N)nc2c1ncn2C1OC(CO)C(O)C1O (centres undefined)
T/C (dose: 12.5 mg/kg/injection, schedule: Q01DX009 (ip), vehicle: suspension in saline): 91 % of control

c1ccc2c(NCCCCCCNc3c4ccccc4nc4ccccc34)c3ccccc3nc2c1
T/C (dose: 1.25 mg/kg/injection, schedule: Q01DX009 (ip), vehicle: Klucel (hydroxypropylcellulose) (HPC)): 124 % of control
T/C (dose: 10.0 mg/kg/injection, schedule: Q01DX009 (ip), vehicle: Klucel (hydroxypropylcellulose) (HPC)): 174 % of control
T/C (dose: 20.0 mg/kg/injection, schedule: Q01DX009 (ip), vehicle: Klucel (hydroxypropylcellulose) (HPC)): 179 % of control

COC(=O)[C@@H]1[C@H](O)[C@H](C)[C@H](O)[C@@](C)(O)/C=C\C=C(C)C(=O)Nc2c(C)c(OC(C)=O)c3c(c2O)C(=O)C(C)=C2OCOC(=C23)C(C)=C[C@@](C)(O)[C@H](O)[C@@H](C)[C@H]1OC(C)=O
T/C [11]: 106 % of control
T/C [12]: 99 % of control
T/C (dose: 25.0 mg/kg/injection, schedule: Q01DX009 (ip), vehicle: Klucel (hydroxypropylcellulose) (HPC)): 90 % of control
T/C (dose: 50.0 mg/kg/injection, schedule: Q01DX009 (ip), vehicle: Klucel (hydroxypropylcellulose) (HPC)): 91 % of control
T/C (dose: 75.0 mg/kg/injection, schedule: Q01DX009 (ip), vehicle: saline with Tween-80): 97 % of control
T/C [1]: 95 % of control
T/C (dose: 150.0 mg/kg/injection, schedule: Q01DX009 (ip), vehicle: saline with Tween-80): 91 % of control
T/C (dose: 300.0 mg/kg/injection, schedule: Q01DX009 (ip), vehicle: saline with Tween-80): 87 % of control

CCOC(=O)C(Cc1ccc(O)cc1)Nc1nc2ccccc2o1 (centres undefined)
T/C [8]: 103 % of control
T/C [9]: 106 % of control
T/C [10]: 106 % of control
T/C (dose: 400.0 mg/kg/injection, schedule: Q01DX009 (ip), vehicle: saline with Tween-80): 96 % of control

CCC(=O)OC1(c2ccccc2)CCN(C)C1C (centres undefined)
T/C (dose: 6.25 mg/kg/injection, schedule: Q01DX009 (ip), vehicle: saline): 102 % of control
T/C (dose: 12.5 mg/kg/injection, schedule: Q01DX009 (ip), vehicle: saline): 102 % of control
T/C (dose: 25.0 mg/kg/injection, schedule: Q01DX009 (ip), vehicle: saline): 95 % of control
T/C (dose: 50.0 mg/kg/injection, schedule: Q01DX009 (ip), vehicle: saline): 97 % of control
T/C (dose: 100.0 mg/kg/injection, schedule: Q01DX009 (ip), vehicle: saline): 90 % of control

O=C(COc1ccc(Cl)cc1)Nc1ccc(Cl)cc1
T/C [7]: 90 % of control
T/C [8]: 92 % of control
T/C [9]: 92 % of control

C[n+]1ccc(Nc2ccc(NC(=O)c3ccc(Nc4cc[n+](C)c5ccc([N+](=O)[O-])cc45)cc3[N+](=O)[O-])cc2)cc1
T/C [6]: 95 % of control
T/C [7]: 100 % of control

Cc1ccc(S(=O)(=O)N/N=C/C(=O)O)cc1
T/C (dose: 0.78 mg/kg/injection, schedule: Q01DX009 (ip), vehicle: saline with Tween-80): 108 % of control
T/C [3]: 110 % of control
T/C [4]: 104 % of control
T/C [11]: 103 % of control and 111 % of control
T/C [5]: 104 % of control and 112 % of control
T/C [12]: 121 % of control
T/C [6]: 111 % of control
T/C (dose: 15.0 mg/kg/injection, schedule: Q01DX009 (ip), vehicle: saline with Tween-80): 112 % of control
T/C (dose: 17.5 mg/kg/injection, schedule: Q01DX009 (ip), vehicle: Klucel (hydroxypropylcellulose) (HPC)): 118 % of control
T/C (dose: 23.0 mg/kg/injection, schedule: Q01DX009 (ip), vehicle: saline with Tween-80): 103 % of control
T/C (dose: 53.0 mg/kg/injection, schedule: Q01DX009 (ip), vehicle: saline with Tween-80): 100 % of control
T/C (dose: 70.0 mg/kg/injection, schedule: Q01DX009 (ip), vehicle: Klucel (hydroxypropylcellulose) (HPC)): 151 % of control
T/C (dose: 70.0 mg/kg/injection, schedule: Q01DX009 (ip), vehicle: saline with Tween-80): 115 % of control
